Data from the OligoGym collection.
Where “and” joins values, the source holds several entries; their conditions need not be identical. Equal values may be shown once. HELM strings list units from the 5' end as sugar, base in round brackets, then linkage (d deoxyribose, r ribose, m 2'-O-methyl, p phosphodiester). Methylation of C is not given here. [moe] = 2'-O-(2-methoxyethyl) (MOE); [cEt] = constrained ethyl (cEt); [sp] = phosphorothioate linkage

Target: HBV
Conditions: ASO

Substance | target mRNA inhibition (HepG2, 0.07 µM) | also measured
RNA1{[moe](C)[sp].[moe](A)[sp].[moe](A)[sp].[moe](T)[sp].[moe](T)[sp].[moe](T)[sp].d(A)[sp].d(T)[sp].d(G)[sp].d(C)[sp].d(C)[sp].d(T)[sp].d(A)[sp].d(C)[sp].d(A)[sp].[moe](G)[sp].[moe](C)}$$$$V2.0 | 26% and 22% | –
RNA1{[moe](G)[sp].[moe](T)[sp].[moe](G)[sp].[moe](C)[sp].[moe](A)[sp].d(G)[sp].d(A)[sp].d(G)[sp].d(G)[sp].d(T)[sp].d(G)[sp].d(A)[sp].d(A)[sp].d(G)[sp].[moe](C)[sp].[moe](G)}$$$$V2.0 | 57% and 51% | –
RNA1{[moe](A)[sp].[moe](A)[sp].[moe](C)[sp].d(C)[sp].d(A)[sp].d(C)[sp].d(T)[sp].d(G)[sp].d(A)[sp].d(A)[sp].d(C)[sp].d(A)[sp].[moe](A)[sp].[moe](A)[sp].[moe](T)[sp].[moe](G)}$$$$V2.0 | 20% and 37% | –
RNA1{[moe](A)[sp].[moe](A)[sp].[moe](C)[sp].[moe](T)[sp].[moe](G)[sp].d(G)[sp].d(A)[sp].d(G)[sp].d(C)[sp].d(C)[sp].d(A)[sp].d(C)[sp].d(C)[sp].d(A)[sp].[moe](G)[sp].[moe](C)[sp].[moe](A)}$$$$V2.0 | 31% and 37% | –
RNA1{[moe](C)[sp].[moe](G)[sp].d(T)[sp].d(G)[sp].d(C)[sp].d(A)[sp].d(G)[sp].d(A)[sp].d(G)[sp].d(G)[sp].d(T)[sp].[moe](G)[sp].[moe](A)[sp].[moe](A)[sp].[moe](G)[sp].[moe](C)}$$$$V2.0 | 51% and 60% | –
RNA1{[moe](A)[sp].[moe](C)[sp].[moe](G)[sp].d(T)[sp].d(G)[sp].d(C)[sp].d(A)[sp].d(G)[sp].d(A)[sp].d(G)[sp].d(G)[sp].d(T)[sp].d(G)[sp].[cEt](A)[sp].[cEt](A)[sp].[cEt](G)}$$$$V2.0 | 74% and 78% | –
RNA1{[moe](G)[sp].[moe](T)[sp].[moe](G)[sp].d(C)[sp].d(A)[sp].d(G)[sp].d(A)[sp].d(G)[sp].d(G)[sp].d(T)[sp].d(G)[sp].d(A)[sp].[moe](A)[sp].[moe](G)[sp].[moe](C)[sp].[moe](G)[sp].[moe](A)}$$$$V2.0 | 67% and 62% | –
RNA1{[moe](A)[sp].[moe](G)[sp].d(G)[sp].d(C)[sp].d(A)[sp].d(T)[sp].d(A)[sp].d(G)[sp].d(C)[sp].d(A)[sp].d(G)[sp].[moe](C)[sp].[moe](A)[sp].[moe](G)[sp].[moe](G)[sp].[moe](A)[sp].[moe](T)}$$$$V2.0 | 75% and 68% | –
RNA1{[moe](C)[sp].[moe](G)[sp].[moe](G)[sp].[moe](G)[sp].[moe](C)[sp].d(A)[sp].d(A)[sp].d(C)[sp].d(A)[sp].d(T)[sp].d(A)[sp].d(C)[sp].d(C)[sp].d(T)[sp].[moe](T)[sp].[moe](G)}$$$$V2.0 | 54% and 53% | –
RNA1{[moe](C)[sp].[moe](A)[sp].d(A)[sp].d(T)[sp].d(T)[sp].d(T)[sp].d(A)[sp].d(T)[sp].d(G)[sp].d(C)[sp].d(C)[sp].[moe](T)[sp].[moe](A)[sp].[moe](C)[sp].[moe](A)[sp].[moe](G)[sp].[moe](C)}$$$$V2.0 | 53% and 46% | –
RNA1{[moe](T)[sp].[moe](T)[sp].[moe](A)[sp].d(T)[sp].d(G)[sp].d(C)[sp].d(C)[sp].d(T)[sp].d(A)[sp].d(C)[sp].d(A)[sp].d(G)[sp].[moe](C)[sp].[moe](C)[sp].[moe](T)[sp].[moe](C)[sp].[moe](C)}$$$$V2.0 | 61% and 54% | –
RNA1{[moe](C)[sp].[moe](C)[sp].d(A)[sp].d(C)[sp].d(T)[sp].d(G)[sp].d(A)[sp].d(A)[sp].d(C)[sp].d(A)[sp].d(A)[sp].[moe](A)[sp].[moe](T)[sp].[moe](G)[sp].[moe](G)[sp].[moe](C)}$$$$V2.0 | 74% and 70% | target mRNA inhibition (HepG2, 0.0092593 µM): 8%; target mRNA inhibition (HepG2, 0.0277778 µM): 27%; target mRNA inhibition (HepG2, 0.0833333 µM): 54%; target mRNA inhibition (HepG2, 0.25 µM): 76%
RNA1{[moe](A)[sp].[moe](C)[sp].[moe](G)[sp].[moe](G)[sp].d(G)[sp].d(C)[sp].d(A)[sp].d(A)[sp].d(C)[sp].d(A)[sp].d(T)[sp].d(A)[sp].d(C)[sp].[moe](C)[sp].[moe](T)[sp].[moe](T)[sp].[moe](G)}$$$$V2.0 | 38% and 41% | –
RNA1{[moe](C)[sp].[moe](A)[sp].[moe](A)[sp].d(T)[sp].d(T)[sp].d(T)[sp].d(A)[sp].d(T)[sp].d(G)[sp].d(C)[sp].d(C)[sp].d(T)[sp].[moe](A)[sp].[moe](C)[sp].[moe](A)[sp].[moe](G)}$$$$V2.0 | 17% and 22% | –
RNA1{[moe](G)[sp].[moe](A)[sp].[moe](A)[sp].[moe](G)[sp].[moe](C)[sp].d(G)[sp].d(A)[sp].d(A)[sp].d(G)[sp].d(T)[sp].d(G)[sp].d(C)[sp].d(A)[sp].d(C)[sp].[moe](A)[sp].[moe](C)[sp].[moe](G)}$$$$V2.0 | 80% and 58% | –
RNA1{[moe](C)[sp].[moe](A)[sp].[moe](A)[sp].[moe](T)[sp].d(T)[sp].d(T)[sp].d(A)[sp].d(T)[sp].d(G)[sp].d(C)[sp].d(C)[sp].d(T)[sp].d(A)[sp].[moe](C)[sp].[moe](A)[sp].[moe](G)}$$$$V2.0 | 19% and 13% | –
